From patent publication US9085572B2, “4-(pyridin-3-yl)-2(pyridin-2yl)-1,2-dihydro-3H-pyrazol-3-one derivatives as specific HIF-pyrolyl-4-hydroxylase inhibitors for treating cardiovascular and haematological diseases” (Bayer Intellectual Property GmbH, priority 2005, dated 2015)
Where a name gives a salt, the structure may show the parent alone.

Experiments:
[1] = molecular target: HIF prolyl hydroxylase; experiment: Inhibition of the activity of HIF prolyl hydroxylase (VBC complex binding to hydroxylated peptide substrate); format: biochemical; conditions: cell lysate containing prolyl hydroxylase, biotin-DLDLEMLAPYIPMDDDFQL peptide substrate
Protocol: Hydroxylated HIF bonds specifically to the von Hippel-Lindau protein-elongin B-elongin C complex (VBC complex). This interaction occurs only if HIF is hydroxylated on a conserved prolyl radical. It is the basis for the biochemical determination of HIF prolyl hydroxylase activity. The test is carried out as described [Oehme F., Jonghaus W., Narouz-Ott L., Huetter J., Flamme I., Anal. Biochem. 330 (1), 74-80 (2004)]:
A clear 96-well microtiter plate coated with NeutrAvidin HBC (Pierce) is incubated with blocker casein for 30 minutes. The plate is then washed three times with 200 μl each time of wash buffer (50 mM Tris, pH 7.5, 100 mM NaCl, 10% (v/v) blocker casein, 0.05% (v/v) Tween 20) per well. The peptide biotin-DLDLEMLAPYIPMDDDFQL (Eurogentec, 4102 Seraing, Belgium) is added in a concentration of 400 nM in 100 μl wash buffer. This peptide serves as a substrate for the prolyl hydroxylation and is bonded to the microtiter plate. After incubation for 30 minutes, the plate is washed three times with wash buffer, incubated with 1 mM biotin in blocker casein for 30 minutes and then washed again three times with wash buffer.
To carry out the prolyl hydroxylase reaction, the peptide substrate bonded to the plate is incubated with a cell lysate containing prolyl hydroxylase for 1 to 60 minutes. The reaction takes place in 100 μl reaction buffer (20 mM Tris, pH 7.5, 5 mM KCl, 1.5 mM MgCl2, 1 μM-1 mM 2-oxoglutarate, 10 μM FeSO4, 2 mM ascorbate) at room temperature. The reaction mixture moreover contains various concentrations of the prolyl hydroxylase inhibitor to be tested. The test substance is preferably, but not exclusively, employed at concentrations of between 1 nM and 100 μM. The reaction is stopped by washing the plate three times with wash buffer.
For quantitative determination of the prolyl hydroxylation, a fusion protein which contains both thioredoxin from E. coli and the VBC complex is added in 80 μl bonding buffer (50 mM Tris, pH 7.5, 120 mM NaCl). After 15 minutes, 10 μl of a solution of polyclonal anti-thioredoxin antibodies from rabbit in bonding buffer are added. After a further 30 minutes, 10 μl of a solution of anti-rabbit immunoglobulin coupled to horseradish peroxidase in bonding buffer are added. After incubation at room temperature for 30 minutes, the plate is washed three times with wash buffer in order to remove non-bonded VBC complex and antibodies. To determine the amount of bonded VBC complex, the plate is incubated with TMB for 15 minutes. The color reaction is ended by addition of 100 μl 1 M sulfuric acid. The amount of bonded VBC complex is determined by measurement of the optical density at 450 nm. It is proportional to the amount of hydroxylated proline in the peptide substrate.
Alternatively, a VBC complex coupled to europium (Perkin Elmer) can be used for detection of the prolyl hydroxylation. In this case, the amount of bonded VBC complex is determined by the fluorescence with respect to time. The use of VBC complex labeled with [^35S]-methionine is moreover possible. For this, the radioactively labeled VBC complex can be prepared by in vitro transcription-translation in reticulocyte lysate.

[2] = test system: recombinant A549 cell line with HRE-controlled luciferase reporter; experiment: Cellular, functional in vitro test: luciferase reporter under hypoxia-responsible elements in recombinant A549 cell line; format: cell-based; conditions: Homo sapiens, luciferase light signal six to 24 hours after addition of test substance
Description: The activity of the compounds according to the invention is quantified with the aid of a recombinant cell line. The cell is originally derived from a human lung carcinoma cell line (A549, ATCC: American Type Culture Collection, Manassas, Va. 20108, USA). The test cell line is transfected in a stable manner with a vector which contains the reporter gene of Photinus pyralis luciferase (called luciferase in the following) under the control of an artificial minimal promoter. The minimal promoter comprises two hypoxia-responsible elements upstream of a TATA box [Oehme F., Ellinghaus P., Kolkhof P., Smith T. J., Ramakrishnan S., Hütter J., Schramm M., Flamme I., Biochem. Biophys. Res. Commun. 296 (2), 343-9 (2002)]. Under the effect of hypoxia (e.g. culturing in the presence of 1% oxygen for 24 hours) or under the action of non-selective dioxygenase inhibitors (e.g. desferroxamine in a concentration of 100 μM, cobalt chloride in a concentration of 100 μM or N-oxalylglycine diethyl ester in a concentration of 1 mM), the test cell line produces luciferase, which can be detected and quantified with the aid of suitable bioluminescence reagents (e.g. Steady-Glo® Luciferase Assay System, Promega Corporation, Madison, Wis. 53711, USA) and a suitable luminometer.
Test Procedure: On the day before the test, the cells are plated out in an exactly calculated amount of culture medium (DMEM, 10% FCS, 2 mM glutamine) in 384- or 1,536-well microtiter plates and kept in a cell incubator (96% atmospheric humidity, 5% v/v CO2, 37° C.). On the test day, the test substances are added to the culture medium in graduated concentrations. No test substance is added to the cells in batches serving as negative controls. As a positive control for determination of the sensitivity of the cell to inhibitors, desferroxamine e.g. is added in a final concentration of 100 μM. Six to 24 hours after transfer of the test substances into the wells of the microtiter plate, the resulting light signal is measured in the luminometer. A dose/effect relationship is plotted with the aid of the measurement values, which serves as the basis for determining the half-maximum active concentration (call the EC50 value in the following).

SMILES | IC50 [1] | EC50 [2]
O=c1c(-c2cccnc2)c[nH]n1-c1ccccn1 [Example 6, 2-Pyridin-2-yl-4-pyridin-3-yl-1,2-dihydro-3H-pyrazol-3-one] | 0.43 µM | 4.9 µM
O=c1c(-c2cccnc2)c[nH]n1-c1ccc(CO)cn1 [Example 23, 2-(5-Hydroxymethyl-pyridin-2-yl)-4-pyridin-3-yl-1,2-dihydro-3H-pyrazol-3-one hydrochloride] | 0.86 µM | 13.4 µM
Cc1ncccc1-c1c[nH]n(-c2ccccn2)c1=O [Example 26] | 0.76 µM | 6 µM
Cc1ccnc(-n2[nH]cc(-c3ccc(C#N)nc3)c2=O)c1 [Example 34, 4-(6-Cyanopyridin-3-yl)-2-(4-methylpyridin-2-yl)-1,2-dihydro-3H-pyrazol-3-one hydrochloride] | 0.18 µM | 4.7 µM
NCc1ccnc(-n2[nH]cc(-c3cccnc3)c2=O)c1 [Example 35, 2-[4-(Aminomethyl)pyridin-2-yl]-4-pyridin-3-yl-1,2-dihydro-3H-pyrazol-3-one dihydrochloride] | 2.3 µM | 17.2 µM
O=c1c(-c2cccnc2)c[nH]n1-c1cc(CO)ccn1 [Example 43, 2-[4-(Hydroxymethyl)pyridin-2-yl]-4-pyridin-3-yl-1,2-dihydro-3H-pyrazol-3-one hydrochloride] | 1.5 µM | 7.6 µM
O=C(Cc1ccccc1)NCc1ccnc(-n2[nH]cc(-c3cccnc3)c2=O)c1 [Example 46, N-{[2-(5-Oxo-4-pyridin-3-yl-2,5-dihydro-1H-pyrazol-1-yl)pyridin-4-yl]methyl}-2-phenylacetamide hydrochloride] | 0.7 µM | 7.4 µM
CC(=O)NCc1ccnc(-n2[nH]cc(-c3cccnc3)c2=O)c1 [Example 47, N-{[2-(5-Oxo-4-pyridin-3-yl-2,5-dihydro-1H-pyrazol-1-yl)pyridin-4-yl]methyl}acetamide hydrochloride] | 2.2 µM | 12.4 µM
O=C(NCc1ccnc(-n2[nH]cc(-c3cccnc3)c2=O)c1)c1ccccc1 [Example 48, N-{[2-(5-Oxo-4-pyridin-3-yl-2,5-dihydro-1H-pyrazol-1-yl)pyridin-4-yl]methyl}benzamide hydrochloride] | 1.9 µM | 18.9 µM
O=C(CCn1cc(Cl)cn1)NCc1ccnc(-n2[nH]cc(-c3cccnc3)c2=O)c1 [Example 50, 3-(4-Chloro-1H-pyrazol-1-yl)-N-{[2-(5-oxo-4-pyridin-3-yl-2,5-dihydro-1H-pyrazol-1-yl)pyridin-4-yl]methyl}propanamide] | 1.9 µM | 7.1 µM
